The source of these data is ChEMBL document CHEMBL4043074, “Bortezomib inhibits mammalian carbonic anhydrases” (Bioorg Med Chem, 2017).

Some targets named below: Carbonic anhydrase 9 (Homo sapiens, UniProt Q16790); Carbonic anhydrase 2 (Homo sapiens, UniProt P00918); Carbonic anhydrase 1 (Homo sapiens, UniProt P00915); Carbonic anhydrase 12 (Homo sapiens, UniProt O43570); Carbonic anhydrase 6 (Homo sapiens, UniProt P23280); Carbonic anhydrase 3 (Homo sapiens, UniProt P07451); Carbonic anhydrase 7 (Homo sapiens, UniProt P43166).
In experiment [1] the target is Carbonic anhydrase 5A, mitochondrial (Homo sapiens, UniProt P35218). The experiment can be described thus: Inhibition of human CA5A by stopped-flow CO2 hydrase assay.
In another experiment the target is Carbonic anhydrase 13 (Homo sapiens, UniProt Q8N1Q1). The experiment can be described thus: Inhibition of human CA13 by stopped-flow CO2 hydrase assay.
In experiment [2] the target is Carbonic anhydrase 5B, mitochondrial (Homo sapiens, UniProt Q9Y2D0). The experiment can be described thus: Inhibition of human CA5B by stopped-flow CO2 hydrase assay.
A further experiment deals with Carbonic anhydrase 14 (Homo sapiens, UniProt Q9ULX7). The experiment can be described thus: Inhibition of human CA14 by stopped-flow CO2 hydrase assay.
The target in the next experiment is T1, Carbonic anhydrase 15 (Mus musculus, UniProt Q99N23).
T1 sequence (Q99N23 whole entry): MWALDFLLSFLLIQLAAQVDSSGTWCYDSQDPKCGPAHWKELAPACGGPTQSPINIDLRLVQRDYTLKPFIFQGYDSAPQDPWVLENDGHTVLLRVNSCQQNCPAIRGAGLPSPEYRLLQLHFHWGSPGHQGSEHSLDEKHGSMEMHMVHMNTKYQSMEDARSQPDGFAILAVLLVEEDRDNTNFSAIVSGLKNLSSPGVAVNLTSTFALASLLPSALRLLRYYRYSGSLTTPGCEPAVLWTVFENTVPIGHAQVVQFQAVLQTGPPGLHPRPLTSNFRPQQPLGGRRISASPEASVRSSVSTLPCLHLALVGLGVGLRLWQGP

The next experiment deals with Carbonic anhydrase 4 (Homo sapiens, UniProt P22748). The experiment can be described thus: Inhibition of human CA4 by stopped-flow CO2 hydrase assay.
Carbonic anhydrase 4, sequence (P22748 whole entry): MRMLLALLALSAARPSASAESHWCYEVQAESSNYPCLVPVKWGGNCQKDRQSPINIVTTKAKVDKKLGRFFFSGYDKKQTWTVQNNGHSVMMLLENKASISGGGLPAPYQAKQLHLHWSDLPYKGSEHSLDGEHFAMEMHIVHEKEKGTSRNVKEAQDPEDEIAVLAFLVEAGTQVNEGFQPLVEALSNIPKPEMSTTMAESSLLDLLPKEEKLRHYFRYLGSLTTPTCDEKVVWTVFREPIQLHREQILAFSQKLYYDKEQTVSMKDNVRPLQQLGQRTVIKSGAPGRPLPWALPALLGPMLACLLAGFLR

Carbonic anhydrase 12, sequence (O43570 whole entry): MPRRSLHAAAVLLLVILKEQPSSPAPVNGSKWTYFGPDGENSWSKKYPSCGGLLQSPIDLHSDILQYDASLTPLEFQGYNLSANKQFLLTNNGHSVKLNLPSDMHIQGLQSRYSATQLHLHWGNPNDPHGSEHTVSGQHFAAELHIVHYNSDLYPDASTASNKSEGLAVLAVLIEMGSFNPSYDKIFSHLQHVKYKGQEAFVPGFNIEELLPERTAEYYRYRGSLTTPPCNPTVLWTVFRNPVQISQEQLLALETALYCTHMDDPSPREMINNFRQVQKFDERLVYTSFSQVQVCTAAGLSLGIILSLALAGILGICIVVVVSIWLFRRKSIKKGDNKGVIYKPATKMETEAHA
Carbonic anhydrase 1, sequence (P00915 whole entry): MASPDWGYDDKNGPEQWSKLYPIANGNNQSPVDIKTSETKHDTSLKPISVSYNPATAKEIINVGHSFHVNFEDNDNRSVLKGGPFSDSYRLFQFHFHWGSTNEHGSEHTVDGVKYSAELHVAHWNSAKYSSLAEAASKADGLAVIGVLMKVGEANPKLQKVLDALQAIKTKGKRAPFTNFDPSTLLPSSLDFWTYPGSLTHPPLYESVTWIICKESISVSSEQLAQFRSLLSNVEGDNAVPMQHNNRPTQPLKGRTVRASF
Carbonic anhydrase 5B, mitochondrial, sequence (Q9Y2D0 whole entry): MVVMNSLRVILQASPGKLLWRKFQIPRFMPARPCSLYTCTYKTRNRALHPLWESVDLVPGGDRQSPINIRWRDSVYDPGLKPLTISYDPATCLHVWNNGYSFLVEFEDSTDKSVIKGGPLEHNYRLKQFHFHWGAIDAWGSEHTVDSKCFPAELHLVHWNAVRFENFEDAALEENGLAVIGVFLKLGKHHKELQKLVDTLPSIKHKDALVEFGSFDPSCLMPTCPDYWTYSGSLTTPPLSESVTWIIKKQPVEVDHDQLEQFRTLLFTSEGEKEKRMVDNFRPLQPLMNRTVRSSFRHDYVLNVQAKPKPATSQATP
Carbonic anhydrase 6, sequence (P23280 whole entry): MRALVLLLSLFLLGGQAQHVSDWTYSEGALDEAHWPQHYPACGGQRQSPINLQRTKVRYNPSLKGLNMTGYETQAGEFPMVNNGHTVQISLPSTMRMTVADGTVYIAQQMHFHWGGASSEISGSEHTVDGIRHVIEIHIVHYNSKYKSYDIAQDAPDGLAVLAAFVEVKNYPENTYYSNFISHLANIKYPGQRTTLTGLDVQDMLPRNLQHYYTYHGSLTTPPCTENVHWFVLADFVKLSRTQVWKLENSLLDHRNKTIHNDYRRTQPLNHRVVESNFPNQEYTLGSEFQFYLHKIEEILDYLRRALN
Carbonic anhydrase 3, sequence (P07451 whole entry): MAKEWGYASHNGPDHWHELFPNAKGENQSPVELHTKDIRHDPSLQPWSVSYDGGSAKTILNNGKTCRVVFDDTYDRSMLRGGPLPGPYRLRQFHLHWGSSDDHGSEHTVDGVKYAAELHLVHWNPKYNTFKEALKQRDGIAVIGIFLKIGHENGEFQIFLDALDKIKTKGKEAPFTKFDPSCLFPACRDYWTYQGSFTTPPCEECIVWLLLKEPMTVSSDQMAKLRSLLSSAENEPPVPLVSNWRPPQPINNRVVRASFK
Carbonic anhydrase 14, sequence (Q9ULX7 whole entry): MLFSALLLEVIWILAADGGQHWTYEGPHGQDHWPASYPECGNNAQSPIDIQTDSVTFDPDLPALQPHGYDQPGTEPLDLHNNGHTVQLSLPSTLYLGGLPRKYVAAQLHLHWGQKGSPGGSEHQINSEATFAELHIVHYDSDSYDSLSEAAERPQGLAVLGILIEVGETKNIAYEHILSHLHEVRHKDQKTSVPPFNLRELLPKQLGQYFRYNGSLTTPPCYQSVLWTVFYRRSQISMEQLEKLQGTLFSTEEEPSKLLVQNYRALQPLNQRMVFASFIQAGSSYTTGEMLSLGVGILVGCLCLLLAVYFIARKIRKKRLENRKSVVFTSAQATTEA
Carbonic anhydrase 13, sequence (Q8N1Q1 whole entry): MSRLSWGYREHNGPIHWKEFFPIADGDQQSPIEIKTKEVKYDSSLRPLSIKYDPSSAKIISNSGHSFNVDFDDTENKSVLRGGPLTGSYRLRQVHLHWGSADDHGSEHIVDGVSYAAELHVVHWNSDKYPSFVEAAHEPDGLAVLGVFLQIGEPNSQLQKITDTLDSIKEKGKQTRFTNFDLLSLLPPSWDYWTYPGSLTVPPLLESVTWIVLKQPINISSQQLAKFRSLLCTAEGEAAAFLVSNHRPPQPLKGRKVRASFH
Carbonic anhydrase 5A, mitochondrial, sequence (P35218 whole entry): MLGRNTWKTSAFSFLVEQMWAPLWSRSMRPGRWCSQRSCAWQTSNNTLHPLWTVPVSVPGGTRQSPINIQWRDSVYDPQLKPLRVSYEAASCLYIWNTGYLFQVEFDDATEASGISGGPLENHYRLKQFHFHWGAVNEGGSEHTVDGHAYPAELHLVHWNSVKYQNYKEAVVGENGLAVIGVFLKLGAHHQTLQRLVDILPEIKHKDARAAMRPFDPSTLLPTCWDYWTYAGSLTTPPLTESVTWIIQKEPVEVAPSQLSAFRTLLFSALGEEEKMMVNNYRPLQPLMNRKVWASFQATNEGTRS
Carbonic anhydrase 7, sequence (P43166 whole entry): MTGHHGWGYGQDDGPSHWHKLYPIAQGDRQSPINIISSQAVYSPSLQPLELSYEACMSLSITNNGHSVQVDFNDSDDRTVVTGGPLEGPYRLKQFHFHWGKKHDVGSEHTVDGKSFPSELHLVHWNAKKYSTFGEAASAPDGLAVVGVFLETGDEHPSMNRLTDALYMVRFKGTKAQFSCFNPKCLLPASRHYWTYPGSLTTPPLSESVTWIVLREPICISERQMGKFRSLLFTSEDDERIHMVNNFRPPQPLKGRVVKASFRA
Description for Carbonic anhydrase 12: Inhibition of human CA12 by stopped-flow CO2 hydrase assay
Description for Carbonic anhydrase 15: Inhibition of mouse CA15 by stopped-flow CO2 hydrase assay
Description for Carbonic anhydrase 2: Inhibition of human CA2 by stopped-flow CO2 hydrase assay
Description for Carbonic anhydrase 3: Inhibition of human CA3 by stopped-flow CO2 hydrase assay
Description for Carbonic anhydrase 6: Inhibition of human CA6 by stopped-flow CO2 hydrase assay
Description for Carbonic anhydrase 7: Inhibition of human CA7 by stopped-flow CO2 hydrase assay
Description for Carbonic anhydrase 9: Inhibition of human CA9 by stopped-flow CO2 hydrase assay

The Ki is a dissociation constant, usually derived from enzyme kinetics or from competition with a known ligand. Read a high Ki as lower affinity. For the compound `OB1OCc2ccccc21` [BENZOXABOROLE], the Ki is more than 50 µM at Carbonic anhydrase 9, 8.18 µM on Carbonic anhydrase 2, 5.69 µM at Carbonic anhydrase 1 and more than 50 µM at Carbonic anhydrase 12.
In the case of `OB(O)c1ccccc1` [PHENYLBORONIC ACID], the Ki (on Carbonic anhydrase 9; in [1]; at Carbonic anhydrase 6; at Carbonic anhydrase 13; on Carbonic anhydrase 2; on Carbonic anhydrase 1) was more than 50 µM each time. The inhibition constant (Ki) (in experiment [2]; on Carbonic anhydrase 14; on Carbonic anhydrase 12; at Carbonic anhydrase 3) was more than 50 µM in each case.
In the case of `CC(C)C[C@H](NC(=O)[C@H](Cc1ccccc1)NC(=O)c1cnccn1)B(O)O` [BORTEZOMIB], the Ki at Carbonic anhydrase 9 was 3.38 µM; in experiment [1], 6.92 µM; at Carbonic anhydrase 6 it was 4.38 µM; at Carbonic anhydrase 13, 8.45 µM; on Carbonic anhydrase 15, 2.68 µM; in experiment [2], 6.83 µM. The Ki on Carbonic anhydrase 7 came out at 6.94 µM; on Carbonic anhydrase 4, 6.51 µM; at Carbonic anhydrase 14, 3.28 µM; on Carbonic anhydrase 12 it was 5.87 µM; at Carbonic anhydrase 3, 4.57 µM.
